Reference: US12623988B2, “Scaleable preparation of polyketides” (The Regents of the University of California, priority 2019, dated 2026)
“Also recorded” adds a separate entry of the source. Read-outs that look alike come from different tables or passages of the source. One block for each compound: values may come before it.

Experiments:
[1] = rcm bond, Hoveyda-Grubbs 2nd generation catalyst, toluene, 110.0 °C, 5.33 h
[2] = estimated, reference (6); cited from earlier work
[3] = Storage stability of synthetic fragments and intermediates; conditions: for stability at ambient conditions: storage
HCT-116 cells = assay: Cell viability assay for 1 and 1a-1c in HCT-116 cells (CellTiter Aqueous One, GI50); assay type: cell-based, human; conditions: 0 to 1000 nM, 72 h, result in words, compared to 1
Method: Cell culture. The HCT-116 cell line was cultured in McCoy's 5a (Life Technologies) supplemented with 10% fetal bovine serum (FBS), 2 mM L-glutamine, and 100 U mL^−1 of penicillin and 100 μg mL^−1 of streptomycin at 37° C. in an atmosphere of 5% CO2. Both the HeLa and Caov3 cell lines were maintained in DMEM (Life Technologies) supplemented with 10% FBS, 2 mM L-glutamine, and 100 U mL^−1 of penicillin and 100 μg mL^−1 of streptomycin at 37° C. in an atmosphere of 5% CO2.
Cell Viability Assays for 1a-1c. HCT-116 cells were cultured in McCoy's 5a (Life Technologies) supplemented with 10% fetal bovine serum (FBS), 2 mM L-glutamine, 100 U mL^−1 penicillin and 100 μg mL^−1 streptomycin at 37° C. in an atmosphere of 5% CO2. HCT-116 cells were plated at […] cells/well in McCoy's 5a containing 10% FBS. Cells were cultured for 24 h, pretreated with 1 or 1a-1c in DMSO ranging from 0 to 1000 nM for 72 h (cell media contained <0.5% DMSO), and then washed with PBS (2×100 μL). 100 μL of PBS was added to each well, followed by 20 μL of CellTiter Aqueous One Solution (Promega). After 2 h at 37° C., absorbance readings were taken at 490 nm (test wavelength) and 690 nm (reference wavelength). GI50 values were calculated in Prism (GraphPad) using at least three biological replicates.

SMILES: COc1ccc(C2O[C@H]3/C=C/[C@H](C)[C@@H](/C(C)=C/I)OC(=O)C[C@H](O[Si](C)(C)C(C)(C)C)CC[C@@]3(C)O2)cc1 (stereo partly drawn)
ring closure, yield of all isomers ([1]; from C=C[C@@H]1OC(c2ccc(OC)cc2)O[C@]1(C)CC[C@H](CC(=O)O[C@H](/C(C)=C/I)[C@@H](C)C=C)O[Si](C)(C)C(C)(C)C, 5.37 mM): 50%
ring closure, yield of all isomers ([1]; from C=C[C@@H]1OC(c2ccc(OC)cc2)O[C@]1(C)CC[C@H](CC(=O)O[C@H](/C(C)=C/I)[C@@H](C)C=C)O[Si](C)(C)C(C)(C)C): 51%

SMILES: CC[C@H](OC)[C@@H](C)[C@H]1O[C@@H]1[C@@H](O)[C@H](C)/C=C/C=C(\C)[C@H]1OC(=O)C[C@H](O)CC[C@@](C)(O)[C@@H](OC(C)=O)/C=C/[C@@H]1C [compound 1, 17S-FD-895]
human maximum tolerated dose (MTD) [2]: ~4 mg/m^2

SMILES: COc1ccc(C2O[C@H]3C=C[C@H](C)[C@@H](/C(C)=C/I)O[13C](=O)C[C@H](O[Si](C)(C)C(C)(C)C)CC[C@@]3(C)O2)cc1 (stereo partly drawn)
ring closure, yield of all isomers ([1]; from C=C[C@@H]1OC(c2ccc(OC)cc2)O[C@]1(C)CC[C@H](C[13C](=O)O[C@H](/C(C)=C/I)[C@@H](C)C=C)O[Si](C)(C)C(C)(C)C, 6.52 mM): 50%

storage stability at 4° C. ([3]; stored at 4° C.): over 2 years
SMILES: CC[C@H](OC)[C@@H](C)/C=C/CO [compound 13, (4S,5S,E)-5-Methoxy-4-methylhept-2-en-1-ol]

SMILES: CC(=O)O[C@H]1/C=C/[C@H](C)[C@@H](/C(C)=C/I)OC(=O)C[C@H](O)CC[C@@]1(C)O [compound 2, (2S,3S,6S,7R,10R,E)-7,10-dihydroxy-2-((E)-1-iodoprop-1-en-2-yl)-3,7-dimethyl-12-oxooxacyclododec-4-en-6-yl acetate]
stability at ambient conditions [3]: stable over six months at ambient conditions

SMILES: CC[C@H](OC)[C@@H](C)[C@H]1O[C@@H]1[C@@H](O)[C@H](C)/C=C/C=C(\C)[C@H]1OC(=O)C[C@@H](O)CC[C@@](C)(O)[C@@H](OC(C)=O)/C=C/[C@@H]1C [1a, 3S,17S-FD-895]
activity (GI50 screening) in human colorectal tumor HCT-116 cells (HCT-116 cells): compromised activity

SMILES: CC[C@H](OC)[C@@H](C)[C@H]1O[C@@H]1[C@@H](O)[C@H](C)/C=C/C=C(\C)[C@H]1OC(=O)C[C@H](O)CC[C@@](C)(O)[C@H](OC(C)=O)/C=C/[C@@H]1C [1b, 7R,17S-FD-895]
activity (GI50 screening) in human colorectal tumor HCT-116 cells (HCT-116 cells): compromised activity; also recorded: lack in activity

SMILES: C#C[C@@H](C)[C@H](O)[C@H]1O[C@@H]1[C@H](C)[C@H](CC)OC [compound 15, (1S,2R)-1-((2R,3R)-3-((2R,3S)-3-methoxypentan-2-yl)oxiran-2-yl)-2-methylbut-3-yn-1-ol]
stability at ambient conditions [3]: stable over six months at ambient conditions
